Data on 17 compounds can be found in PubChem BioAssay (NCI).

Common to all, as to assay: NCI anticancer screen, dose series, 48 h
Assay [1] deals with MDA-MB-435.
In assay [2] the test system is T-47D breast.
Assay [3] deals with OVCAR-8 ovarian.
The subject of assay [4] is MDA-MB-231 breast.
Assay [5] has as its system UO-31 renal.
Assay [6] relates to CCRF-CEM leukemia.
In assay [7] the test system is HCT-15 colon.
Assay [8] deals with HS 578T breast.
For assay [9], the system named is MALME-3M melanoma.
Assay [10] relates to PC-3 prostate.

Each structure is given as a SMILES string. Several values for one entry are separate records, joined by “and”; a condition that tells them apart may be missing. Equal values may be shown once.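 The compound was tested at five concentrations on cells cultured in 96-well plates, with a 48-hour exposure period. Abbreviation: GI50, concentration required for 50% inhibition of growth. TGI denotes the concentration required for complete inhibition of growth.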

On to `O=C(c1ccco1)c1c(C(F)(F)F)n([O-])c2ccc(C(F)(F)F)cc2[n+]1=O`, for which the GI50 in assay [1] was 1160 nM; in [2] it was 0.344 µM; in assay [3], 0.31 µM; in assay [4], 0.298 µM; in [5] it was 0.205 µM; in [6] it was 0.207 µM. For the same compound, the GI50 in assay [7] is 0.291 µM; in [8], 0.654 µM; in assay [9], 0.595 µM; in assay [10], 0.132 µM. The TGI was 2.56 µM in assay [1]; 1.75 µM in [2]; 1.15 µM in assay [3]; 0.768 µM in [4]; 0.439 µM in assay [5]; 0.793 µM in [6]. For the same compound, the TGI in assay [7] was 0.749 µM; in [8] it was 2.74 µM; in assay [9], 1.47 µM; in [10], 0.262 µM.

For `O=C(Nc1cc(Cl)ccc1O)c1ccc(Nc2ccnc(C(F)(F)F)c2)cc1`, the GI50 in [1] is 2950 nM; in [2] it was 1.76 µM; in assay [3] it was 4.54 µM; in assay [4], 2.11 µM; in [5] it was 1.93 µM; in assay [6] it was 0.807 µM. Besides, the GI50 in [7] was 2.86 µM; in assay [8], 3.75 µM; in assay [9] it was 1.79 µM; in assay [10] it was 2.72 µM. Further, the TGI in assay [1] is 9.53 µM; in assay [2], 6.39 µM; in [3], more than 100 µM; in [4] it was 6.35 µM; in assay [5] it was 6.13 µM; in assay [6], 5.7 µM. Besides, the TGI in assay [7] is more than 100 µM; in [8] it was more than 100 µM; in assay [9], 5.49 µM; in [10], 9.02 µM.

With `Nc1cc2c(cc1Br)[nH]c(=O)c1ccccc12`, the GI50 in assay [1] was 1910 nM; in assay [2], 4.22 µM; in [3], 3.37 µM; in assay [4], 3.37 µM; in assay [5], 2.73 µM; in [6] it was 6.82 µM. For the same compound, the GI50 in assay [7] is 4.79 µM; in [8], 3.5 µM; in assay [9], 2.17 µM; in assay [10], 4.14 µM. The TGI in [1] is 3.57 µM; in assay [2], 55.8 µM; in assay [3], more than 100 µM; in [4], 54.9 µM; in assay [5], 18.5 µM; in assay [6] it was 59.5 µM. The TGI in assay [7] was 20.8 µM; in assay [8], 28.9 µM; in [9], 4.78 µM; in assay [10] it was more than 100 µM.

On to `COC(=O)C1=COC(C)C2CN3CCc4c([nH]c5ccccc45)C3CC12` (stereo not drawn), for which the TGI in assay [1] was more than 100 µM; in assay [2], 67.3 µM and > 100 µM; in [3], more than 100 µM; in [4], 65.3 µM and > 100 µM; in [5], more than 100 µM; in [6], 58.5 µM and > 100 µM. The TGI in assay [7] was more than 100 µM; in assay [8] it was 65.8 µM and > 100 µM; in assay [9] it was 45.5 µM and > 100 µM; in assay [10], 95.2 µM and > 100 µM. In addition, the GI50 was 16.6 µM and > 100 µM in [2]; 18.6 µM and > 100 µM in [3]; 21.2 µM and > 100 µM in assay [4]; 20.8 µM and > 100 µM in [5]; 20.1 µM and 50.5 µM in [6]; 30 µM and > 100 µM in [7]. Also, the GI50 was 14.4 µM and 49.5 µM in [9]; 24 µM and > 100 µM in [10].

As to `O=C(/C=C/c1ccccc1)c1ccccc1`, the TGI in assay [1] was more than 10 µM; in [2], more than 10 µM; in assay [3], more than 10 µM; in assay [4], more than 10 µM; in assay [5] it was more than 10 µM; in [6], more than 7.45 µM. Besides, the TGI in assay [7], in assay [8], in assay [9] and in assay [10] was more than 10 µM each time.

`COC(c1ccc(C(C)(C)C)cc1)(c1ccc(C(C)(C)C)cc1)c1ccc(C(C)(C)C)cc1`: the TGI in [1], in assay [2], in [3], in assay [4], in assay [5] and in [6] was more than 100 µM throughout. The TGI in assay [7], in [8], in [9] and in [10] was more than 100 µM each time.

Turning to `CCCc1cc(=O)n2c(C(=O)Nc3ccc(Cl)cc3C)c(C(=O)Nc3ccc(F)cc3)sc2n1`, the GI50 was 20900 nM in [1]; 20 µM in [2]; 2.05 µM in assay [3]; 0.698 µM in assay [4]; 7.35 µM in assay [5]; 16.4 µM in assay [6]. In addition, the GI50 in assay [7] was 9.4 µM; in assay [8], 2.27 µM; in assay [9], 5.12 µM; in assay [10], 2.07 µM. In addition, the TGI was more than 150 µM in assay [1]; 132 µM in assay [2]; 5.14 µM in [3]; 3.08 µM in [4]; 30.4 µM in assay [5]; 103 µM in [6]. In addition, the TGI was more than 150 µM in [7], 8.55 µM in [8], 20.7 µM in assay [9] and 11 µM in assay [10].

In the case of `COc1ccc(-c2nn(-c3cccc(Cl)c3)cc2-c2cc(-c3ccccc3)[nH]c(=O)c2C#N)cc1`, the GI50 in assay [1] is more than 50000 nM; in [2], 1.64 µM; in [3] it was 1.67 µM; in [4] it was 1.24 µM; in [6] it was 8.38 µM; in [7], 27 µM. The GI50 in assay [8] is 1.41 µM; in [9] it was 13.7 µM; in assay [10] it was 6.01 µM. Also, the TGI in assay [1] was more than 50 µM; in assay [2], 7.43 µM; in [3], more than 50 µM; in [4] it was 10.4 µM; in assay [6], 19.3 µM; in assay [7], more than 50 µM. Also, the TGI was more than 50 µM in assay [8], more than 50 µM in [9] and 41.6 µM in assay [10].

With `CC(C)[C@H](O)C(=O)N[C@@H](C)C(=O)N[C@@H]1C(=O)N(C)CCc2ccccc21`, the GI50 in assay [1] is more than 100000 nM; in assay [2], more than 100 µM; in [3] it was more than 100 µM; in assay [4] it was more than 100 µM; in [5], more than 100 µM; in assay [6], more than 100 µM. For the same compound, the GI50 in [7], in [8], in assay [9] and in assay [10] was more than 100 µM each time. Besides, the TGI in assay [1], in assay [2], in assay [3], in assay [4], in assay [5] and in [6] was more than 100 µM each time. Further, the TGI in assay [7], in assay [8], in [9] and in assay [10] was more than 100 µM each time.

Turning to `CCc1ccc2c(c1)C(=O)c1c-2n(CCCN=[N+]=[N-])c(=O)c2cc([N+](=O)[O-])ccc12`, the GI50 in [1] is more than 50000 nM; in [2] it was more than 50 µM; in assay [3], more than 50 µM; in assay [4], more than 50 µM; in assay [5], more than 50 µM; in assay [6], more than 50 µM. Further, the GI50 in assay [7], in assay [8], in assay [9] and in [10] was more than 50 µM in each case. Besides, the TGI in assay [1], in [2], in assay [3], in [4], in [5] and in assay [6] was more than 50 µM each time. The TGI in assay [7], in assay [8], in assay [9] and in assay [10] was more than 50 µM in each case.

With `Nc1cc(Br)c(-c2nnc(CCC(=O)c3nc4ccccc4[nH]3)o2)c(Br)c1`, the GI50 in assay [1] is 1560 nM; in assay [2], 23.4 µM; in assay [3], 21.6 µM; in assay [4], 10.1 µM; in [5], 4.06 µM; in assay [6] it was 3.81 µM. For the same compound, the GI50 in assay [7] is more than 100 µM; in assay [8], 3.75 µM; in [9], 2.06 µM; in assay [10], 2.9 µM. The TGI is 3.71 µM in [1]; more than 100 µM in assay [2]; more than 100 µM in assay [3]; 86.8 µM in assay [4]; more than 100 µM in [5]; more than 100 µM in assay [6]. The TGI in assay [7] was more than 100 µM; in assay [8], 31.7 µM; in assay [9], 17.2 µM; in assay [10], more than 100 µM.

Consider `CC(C)c1[nH]nc2c1N=C(c1ccccc1Cl)c1cc([N+](=O)[O-])ccc1N2`, for which the GI50 in [1] was 870 nM; in assay [2] it was 8.75 µM; in assay [3], 9.1 µM; in [4], 7.92 µM; in assay [5], 5.46 µM; in [6], 5.34 µM. Also, the GI50 in assay [7] was 3.86 µM; in assay [8] it was 3.16 µM; in [9], more than 16.2 µM; in assay [10], 6.7 µM. Besides, the TGI is more than 25 µM in assay [1]; more than 23 µM in [2]; more than 25 µM in assay [3]; more than 25 µM in assay [4]; more than 18.5 µM in [5]; more than 17.8 µM in assay [6]. Moreover, the TGI in assay [7] was more than 25 µM; in [8], more than 20.7 µM; in assay [9], more than 25 µM; in assay [10] it was more than 25 µM.

`COc1ccc(C(CC(=O)c2ccc3c(c2)OCO3)c2c(O)c3ccccc3oc2=O)cc1OC` (stereo not drawn): the TGI in assay [1], in assay [2], in assay [3], in [4], in assay [5] and in assay [6] was more than 100 µM each time. In addition, the TGI in [7], in assay [8], in assay [9] and in assay [10] was more than 100 µM each time.

Consider `C=CC(=O)N1CN(C(=O)C=C)CN(C(=O)C=C)C1`, for which the GI50 in [1] was 2960 nM; in [2], 2.32 µM; in assay [3], 2.93 µM; in assay [4] it was 11.5 µM; in [5], 2.19 µM; in assay [6], 2.82 µM. Further, the GI50 in [7] is 2.01 µM; in assay [8], more than 100 µM; in assay [9], 2.81 µM; in [10], 9.16 µM. In addition, the TGI is 10.7 µM in assay [1]; 12.8 µM in [2]; more than 100 µM in assay [3]; 35.6 µM in assay [4]; 8.53 µM in [5]; 9.78 µM in assay [6]. Moreover, the TGI is 4.68 µM in [7], more than 100 µM in [8], 7.2 µM in assay [9] and 53.9 µM in [10].

With `O=C(/C(=C\c1c(-c2ccccc2)[nH]c2ccccc12)S(=O)(=O)c1ccccc1)c1ccccc1`, the GI50 in assay [1] is 3940 nM; in assay [2], 3.44 µM; in [3], more than 100 µM; in assay [4] it was more than 100 µM; in [5] it was more than 100 µM; in assay [6], more than 100 µM. Besides, the GI50 in assay [8] was 39.5 µM; in assay [9], more than 100 µM; in [10] it was 4.96 µM. For the same compound, the TGI in assay [1], in assay [2], in [3], in [4], in assay [5] and in assay [6] was more than 100 µM throughout. For the same compound, the TGI in assay [8], in assay [9] and in assay [10] was more than 100 µM each time.

Take `CCC(C)(O)c1cnc(CC(C)C)c(=O)n1O` (stereo not drawn): the TGI is more than 100 µM in assay [1]; more than 100 µM in assay [2]; more than 100 µM in assay [3]; more than 100 µM in assay [4]; more than 100 µM in [5]; 54.1 µM in assay [6]. The TGI in assay [7], in assay [8] and in assay [10] was more than 100 µM in each case.

For `CC(C)CC(C/C=C1/CC(CO)(COC(=O)C(C)(C)C)OC1=O)CC(C)C` (stereo not drawn), the TGI is 18.3 µM and 15 µM in assay [1]; 40.5 µM and 23.9 µM in assay [2]; 32.9 µM and 38.7 µM in [3]; 17.4 µM in [4]; 23 µM and 17.1 µM in assay [5]; 18.4 µM in assay [6]. Moreover, the TGI in [7] was 29.1 µM and 28.7 µM; in assay [8], 24.2 µM and 14.7 µM; in assay [10], 21.2 µM and 21.6 µM. In addition, in [5], the GI50 is 10.8 µM and 3.51 µM.
